# Reference: ChEMBL document CHEMBL1201862, “PubChem BioAssay data set” (2004)
# The source made the active and inactive calls.
# Legend:
# [1] = target: Nuclear receptor subfamily 5 group A member 2 (Homo sapiens, UniProt O00482); type: functional, cell-based;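 further: HEK293T cells transfected with LRH-1 and a StAR promoter luciferase reporter; potency for inhibitors that lower LRH-1 driven reporter light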
# Steroidogenic factor 1 = Steroidogenic factor 1 (Homo sapiens, UniProt Q13285); assay: Counterscreen for inverse agonists of the liver receptor homolog-1 (LRH-1; NR5A2): Luminescence-based cell-based high throughput dose response assay to identify inverse agonists of the Steroidogenic Factor 1 Nuclear Receptor (SF1; NR5A1).; type: functional
# Steroidogenic factor 1, sequence (Q13285 whole entry): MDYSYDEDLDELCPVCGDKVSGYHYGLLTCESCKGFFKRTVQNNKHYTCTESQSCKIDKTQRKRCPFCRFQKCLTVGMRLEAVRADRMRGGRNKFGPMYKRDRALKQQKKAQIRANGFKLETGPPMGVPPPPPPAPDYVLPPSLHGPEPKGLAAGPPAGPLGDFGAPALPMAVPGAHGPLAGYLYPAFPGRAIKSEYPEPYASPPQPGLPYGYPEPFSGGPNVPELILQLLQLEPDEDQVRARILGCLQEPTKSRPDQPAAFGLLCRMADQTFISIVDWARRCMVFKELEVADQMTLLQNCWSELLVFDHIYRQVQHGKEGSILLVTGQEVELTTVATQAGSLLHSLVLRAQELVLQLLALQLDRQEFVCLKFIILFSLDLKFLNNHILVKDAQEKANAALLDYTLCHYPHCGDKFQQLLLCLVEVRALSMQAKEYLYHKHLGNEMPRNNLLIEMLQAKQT
# [2] = nonselective StAR promoter luciferase inhibitors – cell-based, luminescence, luciferase reporter, counter-screen for LRH-1 inverse agonist project, dose response (AID 651969); type: functional
# [3] = Luminescence Cell-Based Dose Retest to Confirm Inhibitors of Cancer Stem Cells. [Related pubchem assays (depositor defined):AID2717, AID2721]; type: functional; conditions: Homo sapiens
# Melanocortin receptor 4 = Melanocortin receptor 4 (Homo sapiens, UniProt P32245); type: functional, cell-based;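 further: Cell-based assay with luminescence read-out, confirmatory dose-response testing for agonist activity of biased ligands at MC4R; human U2OS cells with tagged receptor and beta-arrestin; potency of agonists that increase receptor coupling to beta-arrestin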
# Melanocortin receptor 4, sequence (P32245 whole entry): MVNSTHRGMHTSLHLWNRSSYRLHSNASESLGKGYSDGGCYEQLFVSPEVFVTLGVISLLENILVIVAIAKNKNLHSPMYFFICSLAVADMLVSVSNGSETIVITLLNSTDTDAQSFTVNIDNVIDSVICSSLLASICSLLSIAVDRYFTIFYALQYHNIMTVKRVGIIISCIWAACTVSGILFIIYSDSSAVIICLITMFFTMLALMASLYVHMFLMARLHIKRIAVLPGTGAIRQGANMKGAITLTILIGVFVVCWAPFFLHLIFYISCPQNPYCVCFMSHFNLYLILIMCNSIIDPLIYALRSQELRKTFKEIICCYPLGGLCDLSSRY
# [4] = Trypanosoma cruzi growth suppression in host cells – NIH3T3 host cells, beta-gal luminescence, confirmation (AID 2044); type: functional, cell-based;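 further: intracellular parasites grown in NIH/3T3 mouse fibroblasts as host cells; luminescent beta-galactosidase reporter signal from transgenic T. cruzi replicating inside host cells; inhibitors lower the luminescence signal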
# [5] = NIH3T3 cell viability loss – ATP luminescence, mouse fibroblasts, counter-screen, dose response (AID 2010); type: functional, cell-based;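 further: cells exposed to compound for about 90 hours before reading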
# [6] = target: T1, DNA repair protein RAD52 homolog (Homo sapiens, UniProt P43351); type: functional, biochemical
# T1 sequence (P43351 whole entry): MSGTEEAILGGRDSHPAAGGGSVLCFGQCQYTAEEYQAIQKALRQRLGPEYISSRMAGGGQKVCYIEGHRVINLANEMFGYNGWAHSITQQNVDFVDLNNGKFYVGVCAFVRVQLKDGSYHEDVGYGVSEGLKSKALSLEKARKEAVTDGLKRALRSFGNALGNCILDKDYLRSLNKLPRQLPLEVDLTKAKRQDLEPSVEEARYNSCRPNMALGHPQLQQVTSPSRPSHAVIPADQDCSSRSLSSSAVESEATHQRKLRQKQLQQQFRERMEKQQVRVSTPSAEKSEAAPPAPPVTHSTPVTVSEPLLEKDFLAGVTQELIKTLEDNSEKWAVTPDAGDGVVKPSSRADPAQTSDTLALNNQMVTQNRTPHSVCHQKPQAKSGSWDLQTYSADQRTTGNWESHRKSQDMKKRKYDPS
# [7] = target: Photoreceptor-specific nuclear receptor (Homo sapiens, UniProt Q9Y5X4); type: functional, cell-based;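 further: CHO-S cells with Gal4-NCOR and VP16-NR2E3 two-hybrid luciferase reporter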
# Photoreceptor-specific nuclear receptor, sequence (Q9Y5X4 whole entry, the tested form may be a part): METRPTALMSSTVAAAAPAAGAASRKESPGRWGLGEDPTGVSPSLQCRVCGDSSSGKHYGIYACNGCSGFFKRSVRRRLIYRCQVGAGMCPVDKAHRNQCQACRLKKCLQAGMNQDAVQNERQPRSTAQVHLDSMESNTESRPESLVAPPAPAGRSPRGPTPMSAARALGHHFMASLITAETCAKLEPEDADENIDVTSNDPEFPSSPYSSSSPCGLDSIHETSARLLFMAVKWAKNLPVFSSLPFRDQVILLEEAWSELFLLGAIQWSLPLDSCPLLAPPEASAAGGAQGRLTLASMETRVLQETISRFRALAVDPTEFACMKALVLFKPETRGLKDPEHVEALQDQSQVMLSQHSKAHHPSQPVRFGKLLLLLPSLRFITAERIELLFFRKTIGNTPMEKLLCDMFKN
# [8] = target: T2, Apoptotic protease-activating factor 1 (Homo sapiens, UniProt O14727); type: functional
# T2 sequence (O14727 whole entry): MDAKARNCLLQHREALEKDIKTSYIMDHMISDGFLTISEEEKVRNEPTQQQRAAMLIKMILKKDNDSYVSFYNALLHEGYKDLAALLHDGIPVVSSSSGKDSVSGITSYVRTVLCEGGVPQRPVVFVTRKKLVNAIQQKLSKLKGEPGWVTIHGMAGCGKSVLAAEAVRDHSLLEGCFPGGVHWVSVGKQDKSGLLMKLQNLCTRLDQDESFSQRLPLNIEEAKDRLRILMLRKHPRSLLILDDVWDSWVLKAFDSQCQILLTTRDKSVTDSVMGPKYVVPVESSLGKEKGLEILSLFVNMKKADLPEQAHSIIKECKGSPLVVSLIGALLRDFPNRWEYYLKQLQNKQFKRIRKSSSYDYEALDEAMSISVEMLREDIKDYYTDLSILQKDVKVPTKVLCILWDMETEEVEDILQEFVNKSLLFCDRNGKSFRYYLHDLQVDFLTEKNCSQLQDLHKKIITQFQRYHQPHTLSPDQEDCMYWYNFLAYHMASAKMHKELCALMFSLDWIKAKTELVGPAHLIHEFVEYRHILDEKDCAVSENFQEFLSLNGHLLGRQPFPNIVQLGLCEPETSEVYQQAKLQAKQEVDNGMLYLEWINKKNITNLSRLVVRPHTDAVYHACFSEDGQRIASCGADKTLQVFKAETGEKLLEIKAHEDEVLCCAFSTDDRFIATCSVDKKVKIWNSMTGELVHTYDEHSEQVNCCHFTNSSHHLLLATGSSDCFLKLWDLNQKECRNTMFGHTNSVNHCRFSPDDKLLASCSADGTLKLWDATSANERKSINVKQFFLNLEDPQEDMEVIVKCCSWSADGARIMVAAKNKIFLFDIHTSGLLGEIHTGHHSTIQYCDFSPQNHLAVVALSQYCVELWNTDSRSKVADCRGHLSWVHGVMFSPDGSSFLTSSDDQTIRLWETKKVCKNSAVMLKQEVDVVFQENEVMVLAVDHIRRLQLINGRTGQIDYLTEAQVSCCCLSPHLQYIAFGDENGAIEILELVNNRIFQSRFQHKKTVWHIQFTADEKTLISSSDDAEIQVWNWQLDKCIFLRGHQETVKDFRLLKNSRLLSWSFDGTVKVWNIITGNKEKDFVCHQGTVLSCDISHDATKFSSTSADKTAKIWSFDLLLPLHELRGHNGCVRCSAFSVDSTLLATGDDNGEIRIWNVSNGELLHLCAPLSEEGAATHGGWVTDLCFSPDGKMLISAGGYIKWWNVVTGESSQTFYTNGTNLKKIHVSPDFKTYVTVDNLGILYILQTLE
# [9] = luciferase reporter signal suppression in cells – H4 neuroglioma cells, luminescence, dose response (AID 1990); type: functional, cell-based
# [10] = alpha-synuclein stem-loop luciferase translation blockers – H4 neuroglioma cells, luminescence, confirmation (AID 1988); type: functional, cell-based
# [11] = Luminescence Cell-Based Dose Response HTS to Identify Inhibitors of 5'UTR Stem-Loop Driven Prion Protein mRNA Translation in H4 Neuroglioblastoma Cells. [Related pubchem assays: 1827 (Project Summary), 1813 (Primary HTS)]; type: functional
# [12] = target: Arf-GAP with SH3 domain, ANK repeat and PH domain-containing protein 1 (Homo sapiens, UniProt Q9ULH1); type: functional;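 further: biochemical fluorescence polarization dose–response screen measuring inhibition of ASAP1; ASAP1 GAP domain stimulating GTP hydrolysis by truncated human ARF1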
# Arf-GAP with SH3 domain, ANK repeat and PH domain-containing protein 1, sequence (Q9ULH1 whole entry, the tested form may be a part): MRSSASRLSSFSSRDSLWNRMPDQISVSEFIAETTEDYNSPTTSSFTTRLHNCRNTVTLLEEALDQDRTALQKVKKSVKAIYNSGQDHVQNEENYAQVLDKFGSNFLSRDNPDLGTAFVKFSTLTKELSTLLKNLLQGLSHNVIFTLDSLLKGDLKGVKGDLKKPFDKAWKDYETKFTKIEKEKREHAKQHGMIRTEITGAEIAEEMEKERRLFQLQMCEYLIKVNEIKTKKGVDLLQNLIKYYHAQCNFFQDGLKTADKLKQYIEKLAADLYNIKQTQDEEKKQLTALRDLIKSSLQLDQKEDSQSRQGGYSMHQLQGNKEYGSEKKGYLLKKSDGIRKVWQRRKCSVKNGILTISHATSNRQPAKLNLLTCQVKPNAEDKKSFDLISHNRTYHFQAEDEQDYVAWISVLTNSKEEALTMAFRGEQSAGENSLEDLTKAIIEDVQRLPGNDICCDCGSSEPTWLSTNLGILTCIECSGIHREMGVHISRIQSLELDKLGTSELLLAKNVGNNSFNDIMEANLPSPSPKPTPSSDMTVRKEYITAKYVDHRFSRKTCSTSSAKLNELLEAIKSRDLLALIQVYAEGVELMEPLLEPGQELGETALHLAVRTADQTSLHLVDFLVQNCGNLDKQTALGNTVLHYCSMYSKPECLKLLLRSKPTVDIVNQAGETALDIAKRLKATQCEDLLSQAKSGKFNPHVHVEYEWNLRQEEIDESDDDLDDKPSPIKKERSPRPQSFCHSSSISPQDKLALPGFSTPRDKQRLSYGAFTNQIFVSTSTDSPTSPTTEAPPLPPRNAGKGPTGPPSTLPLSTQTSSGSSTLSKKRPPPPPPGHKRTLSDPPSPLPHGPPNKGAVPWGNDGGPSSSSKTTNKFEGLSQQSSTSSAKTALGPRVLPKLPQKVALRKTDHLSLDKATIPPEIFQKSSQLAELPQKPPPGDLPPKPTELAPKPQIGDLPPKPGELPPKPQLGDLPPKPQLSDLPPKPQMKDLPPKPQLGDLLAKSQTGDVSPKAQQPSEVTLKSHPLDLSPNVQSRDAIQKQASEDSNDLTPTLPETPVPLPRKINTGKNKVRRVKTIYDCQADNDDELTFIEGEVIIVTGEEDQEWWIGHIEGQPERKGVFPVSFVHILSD
# [13] = inhibition of ARNT PAS-B/TACC3 complex formation – biochemical, AlphaScreen, cherry-picked samples, confirmation (AID 651703); type: functional, Homo sapiens;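 further: His-tagged ARNT PAS-B domain paired with GST-TACC3 E629A dimer coactivator fragment; potency of inhibitors that break up the complex and lower AlphaScreen signal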
# [14] = target: DNA repair and recombination protein RAD54-like (Homo sapiens, UniProt Q92698); assay: RAD54 Holliday junction migration blockers – biochemical, fluorescence, cherry-picked samples, dose series, confirmation (AID 651657); type: functional
# DNA repair and recombination protein RAD54-like, sequence (Q92698 whole entry): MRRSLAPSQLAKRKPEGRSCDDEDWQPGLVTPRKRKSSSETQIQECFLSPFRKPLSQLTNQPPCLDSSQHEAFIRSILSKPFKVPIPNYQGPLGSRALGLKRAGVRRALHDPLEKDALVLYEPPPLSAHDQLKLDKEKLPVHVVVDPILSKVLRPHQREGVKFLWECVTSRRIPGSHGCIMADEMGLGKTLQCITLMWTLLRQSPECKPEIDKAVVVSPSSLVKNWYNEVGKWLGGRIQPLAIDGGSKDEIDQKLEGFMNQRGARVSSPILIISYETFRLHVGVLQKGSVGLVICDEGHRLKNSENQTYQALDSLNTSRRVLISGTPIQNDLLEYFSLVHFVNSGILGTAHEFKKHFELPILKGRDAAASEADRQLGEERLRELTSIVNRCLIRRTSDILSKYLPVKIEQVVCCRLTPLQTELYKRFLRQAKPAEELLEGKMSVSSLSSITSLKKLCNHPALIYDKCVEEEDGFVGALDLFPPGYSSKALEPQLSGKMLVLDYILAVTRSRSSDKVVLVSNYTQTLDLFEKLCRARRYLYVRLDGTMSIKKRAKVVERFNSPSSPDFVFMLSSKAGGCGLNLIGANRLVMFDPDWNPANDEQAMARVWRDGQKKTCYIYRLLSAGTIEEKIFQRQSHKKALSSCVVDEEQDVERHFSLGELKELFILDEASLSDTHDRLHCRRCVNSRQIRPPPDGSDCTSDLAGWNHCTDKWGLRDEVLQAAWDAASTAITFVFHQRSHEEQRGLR
# Vero = assay: viability loss in Vero cells – cell-based, plate reader, cherry-pick samples, cytotoxicity control, dose response (AID 687020); type: functional; conditions: Chlorocebus sabaeus
# H9c2 = assay: cells; type: functional, cell-based; conditions: Rattus norvegicus, H9c2, Myocardium;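 further: confirmatory concentration-response retest of ultra-high-throughput screening hits for modulation of myocardial damage; cell death induced by hydrogen peroxide oxidative stress; compound pretreatment for 60 min then peroxide exposure for 2 h; potency is for protecting the cells against peroxide damage rather than for killing them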
# Nuclear receptor subfamily 5 group A member 2, sequence (O00482 whole entry): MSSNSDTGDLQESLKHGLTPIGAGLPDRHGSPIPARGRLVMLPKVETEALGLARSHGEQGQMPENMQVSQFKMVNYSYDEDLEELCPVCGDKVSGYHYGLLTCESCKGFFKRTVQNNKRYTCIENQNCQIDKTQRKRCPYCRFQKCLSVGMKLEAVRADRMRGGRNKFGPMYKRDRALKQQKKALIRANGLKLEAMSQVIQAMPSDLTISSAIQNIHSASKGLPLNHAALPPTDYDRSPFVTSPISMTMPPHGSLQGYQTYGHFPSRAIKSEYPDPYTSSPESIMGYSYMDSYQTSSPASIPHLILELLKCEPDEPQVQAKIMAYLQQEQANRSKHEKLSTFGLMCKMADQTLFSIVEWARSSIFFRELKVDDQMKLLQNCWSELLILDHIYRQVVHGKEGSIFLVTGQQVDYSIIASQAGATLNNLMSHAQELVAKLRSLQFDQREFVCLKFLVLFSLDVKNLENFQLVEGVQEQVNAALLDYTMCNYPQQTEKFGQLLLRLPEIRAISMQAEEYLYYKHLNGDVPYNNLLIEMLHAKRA
structure (smiles),measurement,setting,value
O=C(COC(=O)c1ccc(=O)n(Cc2ccccc2)n1)Nc1ccc2c(c1)OCCO2,IC50,[1],35.9 µM (inactive)
same,IC50,Steroidogenic factor 1,35.9 µM (inactive)
same,IC50,[2],35.9 µM (inactive)
CC12CCC3C(CC=C4CC(O)CCC43C)C1C/C(=C\c1ccccc1F)C2=O (stereo unspecified),AC50,[3],2.76 µM (active)
same,EC50,Melanocortin receptor 4,> 89.2 µM (inactive)
Cc1ccc2sc(N(CCCN(C)C)C(=O)CN3C(=O)c4ccccc4C3=O)nc2c1C,EC50,[4],0.225 µM (active)
same,EC50,Melanocortin receptor 4,> 89.2 µM (inactive)
same,EC50,[5],> 60 µM (not active)
same,AC50,[6],13.8 µM (active)
COCc1nnc(NC(=O)c2ccc(S(=O)(=O)N(CC(C)C)CC(C)C)cc2)o1,IC50,[7],8.81 µM (active)
C=CC[n+]1c(-c2ccc(Cl)cc2Cl)csc1Nc1ccc(NC(C)=O)cc1,IC50,[7],2.75 µM (active)
C=CCN1C=C2C(=O)C(C)(OC(=O)CCC(=O)OC)C(=O)C=C2C=C1C1CC1 (stereo unspecified),IC50,[8],39.3 µM (active)
COc1ccc2c(c1)Cc1sc(NC(=O)c3ccco3)nc1-2,IC50,[8],45.8 µM (active)
NS(=O)(=O)c1ccc(CCNc2nc3c(-c4cccc(F)c4)nnn3c3ccccc23)cc1,EC50,[9],> 120 µM (not active)
same,EC50,[10],> 120 µM (not active)
same,EC50,[11],> 120 µM (not active)
same,IC50,[12],11.2 µM (inactive)
O=C(O)CSc1cccc2cccnc12,AC50,[13],74.5 µM (active)
CN1CCN(c2nc(-c3ccccn3)nc3ccccc23)CC1,AC50,[14],53.8 µM (active)
COc1cccc(NC(=O)COc2cccc3c2CCNC3=O)c1,AC50,Vero,37.2 µM (active)
same,IC50,H9c2,> 79 µM (inactive)
